Assays:
[1] = test system: ferric chloride induced arterial thrombosis; test: FeCl3 induced carotid artery thrombosis in mice; type: in vivo; settings: for time to occlusion (TTO) of carotid artery: 1d 4 hr after oral administration, control 9.5±0.4 min
Experimental: Male Swiss albino mice were anesthetized byurethane (1.25 g/kg, i.p.). The carotid artery was carefully dissected and a pulsed Doppler Probe (LDF 100C, BioPac, USA) was placed around it to record the blood flow velocity and patency of the blood vessels. The carotid artery thrombosis was induced by FeCl3 as follows: a square (1×0.5 mm) of Whatman Chromatography paper was immersed in 10% FeCl3 solution for 5 min and placed on the carotid artery as described earlier. (Kurz K D, et al., Thromb Res 1990; 60(4):269-80; Surin W R et al J Pharmacol Toxicol Methods. 2010; 61(3):287-91) Thrombosis was monitored as the reduction in carotid artery blood flow. The time at which the blood-flow velocity was decreased to zero was recorded as the time to occlusion (TTO) of the carotid artery.

[2] = test system: human platelets; test: TRAP (thrombin mimetic SFLLRN) induced platelet aggregation; type: cell-based; settings: up to 300 μM
[3] = test system: human plasma; test: Coagulability of blood by TT, PT and aPTT in human plasma
[4] = test system: human platelets; test: U46619 (thromboxane receptor agonist) induced platelet aggregation; type: cell-based
[5] = test system: human platelets; test: Collagen related peptide (CRP-XL) induced platelet aggregation; type: cell-based; settings: up to 300 μM
[6] = test system: collagen plus epinephrine induced pulmonary thromboembolism; test: Collagen-epinephrine induced pulmonary thromboembolism in mice; type: in vivo; settings: for inhibition in vivo at 30 µM, 30 µmol/kg: Mus musculus, po, 1 h, read-out: Protection (%)
Experimental: To assess the antithrombotic efficacy of compounds, mice were grouped into vehicle, aspirin and compound treated groups, and each group included ten animals. Pulmonary thromboembolism was induced by injecting a mixture of collagen (150 μg/ml) and adrenaline (50 μg/ml) into the tail vein to achieve final doses of collagen (1.5 mg/kg) and adrenaline (0.5 mg/kg) to induce hind limb paralysis or death.^11, 12 Number of test animals killed or paralyzed were evaluated (death/paralysis were employed as endpoint to evaluate antithrombotic agents). The percent protection was calculated by taking the ratio of number of test animals killed or paralyzed to that of total tested animals. Results have been reported as percentage protection, which represents protection against collagen and epinephrine induced thromboembolism and expressed as;
Percent Protection=[1−(Ptest/Pcontrol)]×100
Where, Ptest is the number of animals paralyzed/dead in test compound-treated group, and Pcontrol is the total number of animals paralyzed/dead in vehicle treated group. The percent protection refers to the number of animals in compound treated group that were prevented from paralysis/death.

[7] = test system: human platelets; test: Ristocetin induced platelet aggregation; type: cell-based; settings: up to 300 μM
[8] = test system: human platelets; test: Arachidonic acid induced platelet aggregation (COX pathway); type: cell-based
[9] = test system: human platelets; test: ADP induced platelet aggregation; type: cell-based; settings: up to 300 μM
[10] = Tail bleeding time in mice
[11] = test system: human platelets; test: Collagen induced platelet aggregation in human platelets (in vitro); type: cell-based; settings: Homo sapiens, Platelet, compound concentration 30 μM, n = 3

COC(=O)[C@H](c1ccccc1Cl)N1CCc2sccc2C1 [Clopidogrel, reference compound]
time to occlusion (TTO) of carotid artery [1]: ≤ 23 ± 0.9 min

O=C([C@@H]1CCC(=O)N1Cc1ccccc1Br)N1CC2CC(CN(Cc3ccccc3)C2)C1 [Compound 1d, 5-(7-Benzyl-3,7-diaza-bicyclo[3.3.1]nonane-3-carbonyl)-1-(2-bromo-benzyl)-pyrrolidin-2-one]
effect against TRAP induced platelet aggregation [2]: did not exhibit any significant effect | coagulability of blood as assessed by TT, PT and aPTT [3]: did not alter the coagulability of blood | inhibition at 30 µM [4]: 75.5 ± 6% | effect against CRP-XL induced platelet aggregation [5]: did not exhibit any significant effect | inhibition in vivo at 30 µM, 30 µmol/kg [6]: 40% | protection in collagen-epinephrine induced pulmonary thromboembolism ([6]; mice, after 4 hours (p.o.), 30 μM/kg): ≤ 60% | effect against Ristocetin induced platelet aggregation [7]: did not exhibit any significant effect | inhibition of arachidonic acid induced platelet aggregation ([8]; 30 μM): did not exhibit any inhibition | attenuation of arachidonic acid induced platelet aggregation ([8]; 300 μM and 500 μM): ≤ 50% | effect against ADP induced platelet aggregation [9]: did not exhibit any significant effect | prolongation of time to occlusion vs control ([1]; 4 hr after oral administration): 2.2 fold | time to occlusion (TTO) of carotid artery [1]: 19.2 ± 0.9 min | effect on bleeding tendency ([10]; 1 hr after oral dosing, compared against aspirin and clopidogrel): mild effect | bleeding time ([10]; after 4 hrs (oral), method doses aspirin 170 μM/kg, Clopidogrel 70 μM/kg): 8.4 min

COc1ccc(CN2C(=O)CC[C@H]2C(=O)N2CC3CC(CN(C(=O)OC(C)(C)C)C3)C2)cc1 [Compound 1m, tert-butyl-7-((S)-1-(4-methoxybenzyl)-5-oxopyrrolidine-2-carbonyl)-3,7-diazabicyclo[3.3.1]nonane-3-carboxylate]
inhibition at 30 µM [11]: 10 ± 3% | inhibition in vivo at 30 µM, 30 µmol/kg [6]: 45%

O=C([C@@H]1CCC(=O)N1Cc1ccc(Br)cc1)N1CC2CC(CN(Cc3ccccc3)C2)C1 [Compound 1o, (5S)-5-(7-(4-benzyl)-3,7-diazabicyclo[3.3.1]nonane-3-carbonyl)-1-(4-bromobenzyl)pyrrolidin-2-one]
inhibition at 30 µM [11]: 57 to 86% | inhibition in vivo at 30 µM, 30 µmol/kg [6]: 40%

COc1ccc(CN2C(=O)CC[C@H]2C(=O)N2CC3CC(CN(Cc4ccccc4)C3)C2)cc1 [Compound 1p]
inhibition at 30 µM [11]: 10 ± 4% | inhibition in vivo at 30 µM, 30 µmol/kg [6]: 30%

O=C(c1ccccc1)N1CC2CC(C1)CN(C(=O)[C@@H]1CCC(=O)N1Cc1ccccc1Br)C2 [Compound 1q, 5-(7-Benzoyl-3,7-diaza-bicyclo[3.3.1]nonane-3-carbonyl)-1-(2-bromo-benzyl)-pyrrolidin-2-one]
inhibition at 30 µM [11]: 25.6 ± 3.55% | inhibition in vivo at 30 µM, 30 µmol/kg [6]: 60%

Cc1ccc(S(=O)(=O)N2CC3CC(CN(C(=O)[C@@H]4CCC(=O)N4Cc4ccccc4Br)C3)C2)cc1 [Compound 1r, 1-(2-Bromo-benzyl)-5-[7-(toluene-4-sulphonyl)-3,7-diaza-bicyclo[3.3.1]nonane-3-carbonyl]-pyrrolidin-2-one]
inhibition at 30 µM [11]: 16.8 ± 5.66% | inhibition in vivo at 30 µM, 30 µmol/kg [6]: 55%

Cc1ccc(CN2C(=O)CC[C@H]2C(=O)N2CC3CC(CN(C(=O)c4ccccc4)C3)C2)cc1 [Compound 1s, 5-(7-Benzoyl-3,7-diaza-bicyclo[3.3.1]nonane-3-carbonyl)-1-(4-methyl-benzyl)-pyrrolidin-2-one]
inhibition at 30 µM [11]: 20.5 ± 7.5% | inhibition in vivo at 30 µM, 30 µmol/kg [6]: 40%

Cc1ccc(CN2C(=O)CC[C@H]2C(=O)N2CC3CC(C2)CN(S(=O)(=O)c2ccc(C)cc2)C3)cc1 [Compound 1t, 1-(4-Methyl-benzyl)-5-[7-(toluene-4-sulphonyl)-3,7-diaza-bicyclo[3.3.1]nonane-3-carbonyl]-pyrrolidin-2-one]
inhibition at 30 µM [11]: 37.5 ± 10.5% | inhibition in vivo at 30 µM, 30 µmol/kg [6]: 40%

Cc1ccc(CN2C(=O)CC[C@H]2C(=O)N2CC3CC(CN(Cc4ccccc4Br)C3)C2)cc1 [Compound 1u, (5S)-5-(2-bromobenzyl-3,7-diazabicyclo[3.3.1]nonane-3-carbonyl)-1-(4-methylbenzyl)pyrrolidin-2-one]
inhibition at 30 µM [11]: 57 to 86% | inhibition in vivo at 30 µM, 30 µmol/kg [6]: 30%

Cc1ccc(CN2C(=O)CC[C@H]2C(=O)N2CC3CC(CN(Cc4ccc(Br)cc4)C3)C2)cc1 [Compound 1v, (5S)-5-(7-(4-bromobenzyl)-3,7-diazabicyclo[3.3.1]nonane-3-carbonyl)-1-(4-methylbenzyl)pyrrolidin-2-one]
inhibition at 30 µM [11]: 57 to 86% | inhibition in vivo at 30 µM, 30 µmol/kg [6]: 50%

Cc1ccc(CN2C(=O)CC[C@H]2C(=O)N2CC3CC(CN(Cc4ccc(Cl)cc4)C3)C2)cc1 [Compound 1w, (5S)-5-(7-(4-chlorobenzyl)-3,7-diazabicyclo[3.3.1]nonane-3-carbonyl)-1-(4-methylbenzyl)pyrrolidin-2-one]
inhibition at 30 µM [11]: 57 to 86% | inhibition in vivo at 30 µM, 30 µmol/kg [6]: 35%

CC(C)[C@H](NC(=O)OCc1ccccc1)C(=O)N1CC2CC(CN(Cc3ccccc3)C2)C1 [Compound 1x, Benzyl(2S)-1-(7-benzyl-3,7-diazabicyclo[3.3.1]nonan-3-yl)-3-methyl-1-oxobutan-2-yl carbamate]
inhibition at 30 µM [11]: 18 ± 4% | inhibition in vivo at 30 µM, 30 µmol/kg [6]: 20%

O=C(N[C@@H](Cc1ccccc1)C(=O)N1CC2CC(CN(Cc3ccccc3)C2)C1)OCc1ccccc1 [Compound 1y, Benzyl(2S)-1-(7-benzyl-3,7-diazabicyclo[3.3.1]nonan-3-yl)-1-oxo-3-phenylpropan-2-yl carbamate]
inhibition at 30 µM [11]: 22 ± 5% | inhibition in vivo at 30 µM, 30 µmol/kg [6]: 55%

CC(C)C[C@H](NC(=O)OCc1ccccc1)C(=O)N1CC2CC(CN(Cc3ccccc3)C2)C1 [Compound 1z, Benzyl(2S)-1-(7-benzyl-3,7-diazabicyclo[3.3.1]nonan-3-yl)-4-methyl-1-oxopentan-2-ylcarbamate]
inhibition at 30 µM [11]: 12 ± 10% | inhibition in vivo at 30 µM, 30 µmol/kg [6]: 40%

— patent US20160214983A1, “3,7-DIAZABICYCLO[3.3.1]NONANE CARBOXAMIDES AS ANTITHROMBOTIC AGENTS” (COUNCIL OF SCIENTIFIC & INDUSTRIAL RESEARCH, priority 2013, published 2016)
